The test system of one experiment is H929 cells. The experiment is described as follows: Cell viability assay (Cell TiterGlo). The format is cell-based. The following applies: Homo sapiens, NCI-H929, 24 hours at 37° C., Cell TiterGlo luminescence. The method, then: The cell viability assay was performed using H929 cells. Cells were seeded in 96-well plates at 10,000 cells/well and, after overnight incubation, treated with compounds in a dose response of 3-fold dilutions from 10 μM to 0.005 μM ([…], 0.1% final DMSO concentration). After 24 hours at 37° C., cell viability was measured using Cell TiterGlo reagent (Promega) with a luminescence reader.

In a further experiment the target is CDK9/Cyclin T1 (Homo sapiens (Human), UniProt P50750). Kind of experiment: CDK9 enzyme assay (LANCE ULight TR-FRET kinase assay). As to conditions: 1000 μM ATP, 100 nM ULight MBP, kinase reaction 1 hour. The format is biochemical. An outline of the steps:
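TR-FRET readout (ex 320 nm; em 615/665 nm) after 1 h detection with 0.5 nM europium anti-phospho-MBP antibody in 20 mM EDTA stop buffer. Preceding 1 h kinase step: CDK9/Cyclin T1, ULight-MBP substrate at 100 nM, ATP at 1000 μM, compound pre-diluted in DMSO then buffer.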

The structures appear in SMILES notation.

Sequence of CDK9/Cyclin T1 (P50750 whole entry): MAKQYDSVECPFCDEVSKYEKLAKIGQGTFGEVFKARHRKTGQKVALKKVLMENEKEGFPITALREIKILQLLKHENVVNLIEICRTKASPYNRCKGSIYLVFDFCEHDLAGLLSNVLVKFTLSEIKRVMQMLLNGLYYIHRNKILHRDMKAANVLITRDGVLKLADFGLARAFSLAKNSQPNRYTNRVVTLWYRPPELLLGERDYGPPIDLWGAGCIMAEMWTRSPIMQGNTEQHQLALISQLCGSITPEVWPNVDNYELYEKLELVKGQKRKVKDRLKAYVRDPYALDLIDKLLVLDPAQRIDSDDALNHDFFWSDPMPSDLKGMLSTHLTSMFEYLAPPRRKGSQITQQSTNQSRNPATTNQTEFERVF
Sequence of CDK9/Cyclin T1 (O60563 whole entry partner): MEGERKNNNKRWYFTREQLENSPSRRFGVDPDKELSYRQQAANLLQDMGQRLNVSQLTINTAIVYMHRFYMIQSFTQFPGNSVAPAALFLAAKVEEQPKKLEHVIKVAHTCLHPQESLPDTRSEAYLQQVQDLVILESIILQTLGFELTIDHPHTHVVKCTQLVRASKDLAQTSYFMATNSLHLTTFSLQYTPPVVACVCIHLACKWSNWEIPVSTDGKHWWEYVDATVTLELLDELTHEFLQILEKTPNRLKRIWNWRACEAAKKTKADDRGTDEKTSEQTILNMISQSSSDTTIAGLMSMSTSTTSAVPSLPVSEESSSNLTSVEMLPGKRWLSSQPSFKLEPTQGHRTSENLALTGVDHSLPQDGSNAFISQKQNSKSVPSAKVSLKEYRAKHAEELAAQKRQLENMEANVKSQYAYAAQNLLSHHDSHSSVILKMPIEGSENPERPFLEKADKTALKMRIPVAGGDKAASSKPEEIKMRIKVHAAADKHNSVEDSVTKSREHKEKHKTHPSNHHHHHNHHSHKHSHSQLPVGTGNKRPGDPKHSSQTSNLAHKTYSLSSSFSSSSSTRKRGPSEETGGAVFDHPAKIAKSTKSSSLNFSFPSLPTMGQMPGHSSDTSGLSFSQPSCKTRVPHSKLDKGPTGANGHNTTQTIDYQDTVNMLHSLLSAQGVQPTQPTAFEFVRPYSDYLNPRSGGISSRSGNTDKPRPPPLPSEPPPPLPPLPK

As to `CN1Cc2c(C3=CCC(N[C@H](C(=O)O)C(C)(C)C)CC3)[nH]c3nccc(c23)-c2cc(F)ccc21` (stereo partly drawn) [Example 36, N-[4-(10-fluoro-7-methyl-6,7-dihydro-4H-3,4,7-triazadibenzo[cd,f]azulen-5-yl)cyclohex-3-en-1-yl]-3-methyl-L-valine], the 50% inhibitory concentration (IC50) (in general, the point on the concentration scale where inhibition reaches its midpoint) was 25 nM in the experiment on H929 cells and 64 nM at CDK9/Cyclin T1.
With `CN1Cc2c(C3=C[C@@H](CO)NCC3)[nH]c3nccc(c23)-c2cc(F)ccc21` [Example 155, [(2S)-4-(10-fluoro-7-methyl-6,7-dihydro-4H-3,4,7-triazadibenzo[cd,f]azulen-5-yl)-1,2,5,6-tetrahydropyridin-2-yl]methanol], the IC50 with H929 cells was determined as 39 nM; on CDK9/Cyclin T1, 41 nM.
Taken in the same sequence, the figures for `CN1Cc2c(C3=CCN([C@H]4CC[C@@H](CC(=O)O)CC4)CC3)[nH]c3ncc(F)c(c23)-c2ccccc21` [Example 182, {cis-4-[4-(1-fluoro-7-methyl-6,7-dihydro-4H-3,4,7-triazadibenzo[cd,f]azulen-5-yl)-3,6-dihydropyridin-1(2H)-yl]cyclohexyl}acetic acid] were 10 nM and 71 nM.
The matching figures for `CN1Cc2c(C3=CC4CCCC(C3)N4CC(=O)O)[nH]c3nccc(c23)-c2cc(F)ccc21` (stereo not drawn) [Example 108, [3-(10-fluoro-7-methyl-6,7-dihydro-4H-3,4,7-triazadibenzo[cd,f]azulen-5-yl)-9-azabicyclo[3.3.1]non-2-en-9-yl]acetic acid]: 1200 nM and 110 nM.
The matching figures for `CN1Cc2c(C3=CCN(CC(=O)N(C)C4CC(O)C4)CC3)[nH]c3nccc(c23)-c2cc(F)ccc21` (stereo not drawn) [Example 24, 2-[4-(10-fluoro-7-methyl-6,7-dihydro-4H-3,4,7-triazadibenzo[cd,f]azulen-5-yl)-3,6-dihydropyridin-1(2H)-yl]-N-(3-hydroxycyclobutyl)-N-methylacetamide]: 27 nM and 40 nM.
`CN(CC(O)CO)C(=O)CN1C2C=C(c3[nH]c4nccc5c4c3CN(C)c3ccc(F)cc3-5)CC1CCC2` (stereo not drawn) [Example 107, N-(2,3-dihydroxypropyl)-2-[3-(10-fluoro-7-methyl-6,7-dihydro-4H-3,4,7-triazadibenzo[cd,f]azulen-5-yl)-9-azabicyclo[3.3.1]non-2-en-9-yl]-N-methylacetamide]: the IC50 with H929 cells and on CDK9/Cyclin T1 was 110 nM in each case.
Regarding `CN(C)C(=O)CN1CC=C(c2[nH]c3nccc4c3c2CN(C)c2ccc(F)cc2-4)CC1` [Example 12, 2-[4-(10-fluoro-7-methyl-6,7-dihydro-4H-3,4,7-triazadibenzo[cd,f]azulen-5-yl)-3,6-dihydropyridin-1(2H)-yl]-N,N-dimethylacetamide], the IC50 with H929 cells turned out to be 42 nM; on CDK9/Cyclin T1, 51 nM.
The matching figures for `CN1Cc2c(-c3cccc(CC(=O)O)c3)[nH]c3nccc(c23)-c2cc(F)ccc21` [Example 82, [3-(10-fluoro-7-methyl-6,7-dihydro-4H-3,4,7-triazadibenzo[cd,f]azulen-5-yl)phenyl]acetic acid]: 4700 nM and 100 nM.
As to `CN1Cc2c(C3=CCC(N[C@H](C(=O)O)c4ccccc4)CC3)[nH]c3nccc(c23)-c2cc(F)ccc21` (stereo partly drawn) [Example 32, (2S)-{[4-(10-fluoro-7-methyl-6,7-dihydro-4H-3,4,7-triazadibenzo[cd,f]azulen-5-yl)cyclohex-3-en-1-yl]amino}(phenyl)acetic acid], the IC50 is 170 nM in the experiment on H929 cells and 56 nM at CDK9/Cyclin T1.
With `CN1Cc2c(C3=CCCN(CC(=O)N4CC(O)C4)C3)[nH]c3nccc(c23)-c2cc(F)ccc21` [Example 121, 2-[5-(10-fluoro-7-methyl-6,7-dihydro-4H-3,4,7-triazadibenzo[cd,f]azulen-5-yl)-3,6-dihydropyridin-1(2H)-yl]-1-(3-hydroxyazetidin-1-yl)ethanone], the results for the IC50 in the experiment with H929 cells and on CDK9/Cyclin T1 were 1100 nM and 160 nM, respectively.
The matching figures for `CN1Cc2c(C3=C[C@H]4CC[C@@H](C3)N4CC(=O)N3CC(O)C3)[nH]c3nccc(c23)-c2cc(F)ccc21` [Example 80, 2-[(1R,5S)-3-(10-fluoro-7-methyl-6,7-dihydro-4H-3,4,7-triazadibenzo[cd,f]azulen-5-yl)-8-azabicyclo[3.2.1]oct-2-en-8-yl]-1-(3-hydroxyazetidin-1-yl)ethanone]: 190 nM and 97 nM.
Consider `CN1Cc2c(C3=CCN(CC(=O)N4CC[C@H](O)C4)CC3)[nH]c3ncc(F)c(c23)-c2cc(F)ccc21` [Example 73, 2-[4-(1,10-difluoro-7-methyl-6,7-dihydro-4H-3,4,7-triazadibenzo[cd,f]azulen-5-yl)-3,6-dihydropyridin-1(2H)-yl]-1-[(3S)-3-hydroxypyrrolidin-1-yl]ethanone], for which the IC50 in the experiment on H929 cells stood at 20 nM; at CDK9/Cyclin T1, 52 nM.
The matching figures for `CN1Cc2c(C3=CCN(S(C)(=O)=O)CC3)[nH]c3nccc(c23)-c2cc(F)ccc21` [Example 4, 10-fluoro-7-methyl-5-[1-(methylsulfonyl)-1,2,3,6-tetrahydropyridin-4-yl]-6,7-dihydro-4H-3,4,7-triazadibenzo[cd,f]azulene]: 150 nM and 25 nM.
Taken in the same sequence, the figures for `CN1Cc2c(C3=CCN(CC(=O)N4CC(O)C4)CC3)[nH]c3nccc(c23)-c2cc(F)ccc21` [Example 18, 2-[4-(10-fluoro-7-methyl-6,7-dihydro-4H-3,4,7-triazadibenzo[cd,f]azulen-5-yl)-3,6-dihydropyridin-1(2H)-yl]-1-(3-hydroxyazetidin-1-yl)ethanone] were 160 nM and 44 nM.
In the case of `CN(CC(O)CO)C(=O)CN1[C@H]2CC[C@@H]1C=C(c1[nH]c3nccc4c3c1CN(C)c1ccc(F)cc1-4)C2` (stereo partly drawn) [Example 83, N-(2,3-dihydroxypropyl)-2-[(1R,5S)-3-(10-fluoro-7-methyl-6,7-dihydro-4H-3,4,7-triazadibenzo[cd,f]azulen-5-yl)-8-azabicyclo[3.2.1]oct-2-en-8-yl]-N-methylacetamide], the IC50 in the experiment on H929 cells and at CDK9/Cyclin T1 was 140 nM throughout.
Consider `CN1Cc2c(C3=CCCN(CC(=O)O)CC3)[nH]c3nccc(c23)-c2cc(F)ccc21` [Example 90, [4-(10-fluoro-7-methyl-6,7-dihydro-4H-3,4,7-triazadibenzo[cd,f]azulen-5-yl)-2,3,6,7-tetrahydro-1H-azepin-1-yl]acetic acid], for which the values for the IC50 in the experiment on H929 cells and against CDK9/Cyclin T1 were 1900 nM and 170 nM, respectively.
The matching figures for `CN1Cc2c(C3=CCN(C(=O)OC(C)(C)C)CC3)[nH]c3ncc(F)c(c23)-c2cc(F)ccc21` [Example 49, tert-butyl 4-(1,10-difluoro-7-methyl-6,7-dihydro-4H-3,4,7-triazadibenzo[cd,f]azulen-5-yl)-3,6-dihydropyridine-1(2H)-carboxylate]: 780 nM and 780 nM.
The matching figures for `CN1Cc2c(C3=CCN(C4CC(CC(=O)O)C4)CC3)[nH]c3ncc(F)c(c23)-c2cc(F)ccc21` (stereo not drawn) [Example 192, {3-[4-(1,10-difluoro-7-methyl-6,7-dihydro-4H-3,4,7-triazadibenzo[cd,f]azulen-5-yl)-3,6-dihydropyridin-1(2H)-yl]cyclobutyl}acetic acid]: 27 nM and 79 nM.
The matching figures for `CN(C)C(=O)CN1CC=C(c2[nH]c3nccc4c3c2CN(C)c2cc(F)c(F)cc2-4)CC1` [Example 132, 2-[4-(9,10-difluoro-7-methyl-6,7-dihydro-4H-3,4,7-triazadibenzo[cd,f]azulen-5-yl)-3,6-dihydropyridin-1(2H)-yl]-N,N-dimethylacetamide]: 14 nM and 40 nM.
Regarding `CN1Cc2c(C3=CCN4C(=O)OC[C@H]4C3)[nH]c3nccc(c23)-c2cc(F)ccc21` [Example 153, (8aR)-7-(10-fluoro-7-methyl-6,7-dihydro-4H-3,4,7-triazadibenzo[cd,f]azulen-5-yl)-1,5,8,8a-tetrahydro[1,3]oxazolo[3,4-a]pyridin-3-one], the IC50 came out at 600 nM in the experiment on H929 cells and 66 nM against CDK9/Cyclin T1.
Taken in the same sequence, the figures for `CN(CCO)C(=O)CN1CC=C(c2[nH]c3nccc4c3c2CN(C)c2ccc(F)cc2-4)CC1` [Example 19, 2-[4-(10-fluoro-7-methyl-6,7-dihydro-4H-3,4,7-triazadibenzo[cd,f]azulen-5-yl)-3,6-dihydropyridin-1(2H)-yl]-N-(2-hydroxyethyl)-N-methylacetamide] were 8 nM and 48 nM.
Taken in the same sequence, the figures for `CN1Cc2c(C3=CCC(N[C@@H](CO)C(=O)O)CC3)[nH]c3nccc(c23)-c2cc(F)ccc21` (stereo partly drawn) [Example 38, N-[4-(10-fluoro-7-methyl-6,7-dihydro-4H-3,4,7-triazadibenzo[cd,f]azulen-5-yl)cyclohex-3-en-1-yl]-L-serine] were 270 nM and 91 nM.
The matching figures for `CN(CC(O)CO)C(=O)CN1CC=C(c2[nH]c3nccc4c3c2CN(C)c2ccc(F)cc2-4)CC1` (stereo not drawn) [Example 63, N-(2,3-dihydroxypropyl)-2-[4-(10-fluoro-7-methyl-6,7-dihydro-4H-3,4,7-triazadibenzo[cd,f]azulen-5-yl)-3,6-dihydropyridin-1(2H)-yl]-N-methylacetamide]: 90 nM and 38 nM.
For the molecule `CN1Cc2c(C3=CCN(CC(=O)N4CCC[C@@H]4CO)CC3)[nH]c3ncc(F)c(c23)-c2cc(F)ccc21` [Example 75, 2-[4-(1,10-difluoro-7-methyl-6,7-dihydro-4H-3,4,7-triazadibenzo[cd,f]azulen-5-yl)-3,6-dihydropyridin-1(2H)-yl]-1-[(2R)-2-(hydroxymethyl)pyrrolidin-1-yl]ethanone], the IC50 in the experiment with H929 cells stood at 8 nM; against CDK9/Cyclin T1, 51 nM.

For the origin of these results see patent US9328112B2, “Tetracyclic CDK9 kinase inhibitors” (AbbVie Inc., priority 2014, dated 2016).
